Consider two compounds from US10399994B2, “Compounds and methods for preventing or treating sensory hair cell death” (UNIVERSITY OF WASHINGTON, priority 2015, dated 2019).

Where “and” joins values, the source holds several entries; their conditions need not be identical. Identical values can stand only once. Counter-ions that a name gives are not always drawn.

The test system of data set [1] is hair cells. The data set can be described thus: Cisplatin Hair Cell Toxicity Assay in Zebrafish. In kind it is in vivo. To be noted: cisplatin 50 μM for 24 hrs. As to the method: Zebrafish are bred and newly fertilized embryos are collected the week prior and raised at 28.5° C. in petri dishes containing embryo medium. Newly hatched free-swimming larvae are fed paramecium and dry fish food at 4 days post fertilization (dpf) with lights on. For treatment, fish 5-7 dpf are transferred to cell culture baskets and place within a well of a 6-well plate containing 7 milliliters of 1× embryo medium. Typically, tests are done with ten fish per basket but work well with up to 50 fish. All treatment and wash volumes are 7 milliliters. • 1. In a 48-well plate, place 10-12 fish/well in 300 μl of EM. • 2. Add ORC-13661 and vehicle control to each well at concentrations listed below. Swirl and place in incubator for 15 min. ORC-13661 concentrations tested: 0.103 μM, 0.308 μM, 0.925 μM, 2.78 μM, 8.33 μM. • 3. Add cisplatin 50 μM to pretreated and control wells. Swirl and place in incubator for 24 hrs. • 4. Place 1-2 drops of MS222 in each well to anesthetize fish, then aspirate treated EM. • 5. Add 300 μl/well of 4% paraformaldehyde to fix fish. Fix overnight at 4° C. or 2 hrs at room temperature (RT). • 6. Rinse wells with PBS for 15 min each 3 times. • 7. Add 300 μl/well of blocking solution for 1 hr at RT. • 8. Incubate with 300 μl/well of 1:400 mouse anti-Parvalbumin antibody overnight at 4° C. • 9. Rinse wells with PBS-T for 15 min each 3 times. • 10. […]

The subject of data set [2] is kidney. The data set can be described thus: Effect of Amikacin and Compound 9 on Kidney Function. In kind it is in vivo, Fischer 344 rats. To be noted: for creatinine clearance (CrCl) post-treatment compared to pretreatment: FIG. 3; for kidney histopathology damage score (0-4): FIG. 4. As for the experimental part: The study consisted of three groups of Fischer 344 rats aged 6 weeks and weighing approximately 200 g at the start of the study. Group 1 consisted of six rats, randomly selected to receive amikacin only, Group 2 consisted of six rats chosen randomly to receive amikacin and compound 9, and Group 3 consisted of three rats, 2 rats given compound 9 and 1 rat given only 0.5% Methylcellulose, the diluent for compound 9. All animals receiving amikacin were given 320 mg/kg subcutaneously (SQ) from a freshly prepared solution of amikacin of 40 mg/mL. The compound 9 formualtion was prepared by weighing 13.08 mg of compound 9 dissolved in 12 mL of 0.5% MC in saline with vortexing, sonification and homogenization to obtain a solution with concentration at 12 mg/12 mL=1 mg/mL, dose volume is 5 mL/kg (5 mg/kg). The compound 9 solution was given by oral gavage at a dose of 5 mg/kg.
One day prior to the onset of dosing, blood was drawn from all rats for serum analysis and all rats were put into metabolic cages for 24 hour urine collection and analysis. All rats were returned to normal cages and allowed to eat and drink ad lib. All rats received their assigned treatments for 10 days and then were returned to metabolic cages for the 10th day. Three rats were randomly chosen from each of Group 1 and Group 2 to have additional blood draws at 30 min, 60 mn, 2 hr, 4 hr, 8 hr and 24 hr after the 10th dose for amikacin and compound 9 PK analysis. All rats had blood drawn for serum analysis at the end of day 10 and the 24 hour urine collected from day 10. After the final blood draw, all rats were euthanized and their kidneys removed and prepared for histopathology testing. The left kidneys were longitudinally sectioned, the right kidneys were cross sectioned. The pathologist read the slides, blinded to the group from which they were assigned. They graded viewed five different locations on each slide and gave each location a score for degree of damage: no damage (0 score); minimal (1-10%, 1 score), mild (11-20%, 2 score), moderate (21-50%, 3 score), or marked (51-100%, 4 score).
Previous studies have shown that aminoglycoside renal toxicity primarily affects the proximal and distal tubules of the kidney, eventually causing […] of the epithelial cells. The resulting damage causes, in part, decreased glomerular filtration rate (GFR) which may be a result of the tubular damage or partly through other mechanisms. The GFR was approximated using the creatinine clearance. […] The one-sided two-sample t-test p-value for the comparison of the amikacin only (Group 1) and amikacin+compound 9 (Group 2) are shown in a box between the two columns.

Data set [3] has as its system hair cells. Briefly: Neomycin Hair Cell Toxicity Assay in Zebrafish. In kind it is in vivo. As for the experimental part: Zebrafish are bred and newly fertilized embryos are collected the week prior and raised at 28.5° C. in petri dishes containing embryo medium. Newly hatched free-swimming larvae are fed paramecium and dry fish food at 4 days post fertilization (dpf) with lights on. For treatment, fish 5-7 dpf are transferred to cell culture baskets and place within a well of a 6-well plate containing 7 milliliters of 1× embryo medium. Typically, tests are done with ten fish per basket but work well with up to 50 fish. All treatment and wash volumes are 7 milliliters.
1. Fish are pre-treated with test compound for 1 hour. Concentrations between 0.010 to 25 micromolar of test compound are tested.
2. Treat with 200 micromolar neomycin (neomycin sulfate, Sigma, St. Louis, Mo., catalog #N1142)+ test compound for 30 minutes.
3. […]
5. […] The DASPEI staining of ten neuromasts (SO1, SO2, IO1, IO2, IO3, IO4, M2, MI1, MI2 and O2) on one side of an animal are evaluated. Each neuromast is scored for presence of DASPEI staining (score=2), reduced DASPEI staining (score=1) or absence of DASPEI staining (score=0). […] Average scores and standard deviations are calculated for animals in each treatment group. Scores are normalized to control group (vehicle only, no drug, no neomycin) and expressed as % hair cell survival. […] If less than 50% hair cells survive, the HC50 is not determined. […]

In data set [4] the test system is rats. Briefly: Auditory Brainstem Response (ABR) Assay. It counts as in vivo. To be noted: Day 24 vs Day 0, FIG. 2. As to the method:
Chronic treatment of rats with aminoglycosides (AGs) such as kanamycin or amikacin results in an elevation of ABR thresholds, typically most pronounced at higher frequencies. For rats, hearing is tested at a range of frequencies to determine the intensity of sound (measured in decibels) necessary to evoke a response. As hearing loss becomes more severe, a higher intensity is needed to evoke a response. Each rat serves as its own control; hearing thresholds are determined at each frequency prior to any treatment and then at 2 weeks after a 10-day course of AG treatment (or control drug exposures).
The ABR assay measures short latency field potentials recorded from the scalp of animals that were sedated or noninvasively immobilized. […] For each animal, hearing thresholds, wave 1 latencies and input-output functions for stimulus frequencies at 2, 4, 8, 16 and 32 kHz were measured prior to any treatment to determine the initial sensitivity and dynamic range of hearing, and then repeated at the end of drug treatment and at the end of the experiment (2-weeks after dosing). […]
ABR records were evaluated by a “blinded”, trained experimenter. Hearing loss (Threshold Shift) was determined by subtracting the threshold during pre-treatment (Day 0) from the final ABR threshold (Day 24; two weeks following treatment). […]

As to `CN1[C@H]2CC[C@@H]1c1c(sc(NC(=O)Nc3ccc(Cl)cc3)c1C(N)=O)C2` [Compound 9, (4R,7S)-2-(3-(4-chlorophenyl)ureido)-9-methyl-5,6,7,8-tetrahydro-4H-4,7-epiminocyclohepta[b]thiophene-3-carboxamide hydrochloride], the EC50 was below 1 µM in data set [1] (Danio rerio, 15 min pretreatment, read-out: HC50 (the source's name)) and below 1 µM in data set [3] (Danio rerio, concentration that would produce 50% hair cell survival, 1 hour pre-treatment, then 200 micromolar neomycin + test compound for 30 minutes, read-out: HC50 (the source's name)). Besides, the “Max HC Protection” value is 90% protection at 8.33 μM in data set [1] (at 8.33 μM, hair cell counts as % control) and 96% protection at 2.6 μM in data set [3] (at 2.6 μM, 200 micromolar neomycin, % hair cell survival normalized to control). Moreover, in data set [2] (Group 2: amikacin 320 mg/kg SQ + compound 9 5 mg/kg oral gavage for 10 days), the “creatinine clearance (CrCl) post-treatment compared to pretreatment” value is reported as “significantly different from baseline”. The “kidney histopathology damage score (0-4)” value in data set [2] (amikacin + compound 9 treated rats, longitudinal and cross sectioning (values not assigned to section in text), vs amikacin only p<0.005, hydrochloride) was 3.6 and 3.1. Also, the “Hearing loss (ABR Threshold Shift), high frequency” value in data set [4] (Amikacin SC 320 mg/kg/day + Compound 9 PO 5 mg/kg/day for 10 days) is “robust protection”.
For `NCC[C@H](O)C(=O)N[C@@H]1C[C@H](N)[C@@H](O[C@H]2O[C@H](CN)[C@@H](O)[C@H](O)[C@H]2O)[C@H](O)[C@H]1O[C@H]1O[C@H](CO)[C@@H](O)[C@H](N)[C@H]1O` [amikacin, reference compound], the “creatinine clearance (CrCl) post-treatment compared to pretreatment” value in data set [2] (Group 1: amikacin only 320 mg/kg SQ for 10 days) is on record as “significantly different from baseline”. In addition, the “kidney histopathology damage score (0-4)” value in data set [2] (amikacin only rats, longitudinal and cross sectioning of the kidney) is reported as 3.9. Besides, in data set [4] (Amikacin alone SC 320 mg/kg/day for 10 days), the “Hearing loss (ABR Threshold Shift)” value is “hearing loss”.
